Test results: US10351621B2, “Anti-histone therapy in acute kidney injury” (Immunomedics, Inc., priority 2014, dated 2019)
Entries after “also recorded” stand apart in the source; their conditions may differ.

Legend:
human neutrophils = assay: In vitro NET formation in neutrophils stimulated by PMA or necrotic TCs media; format: cell-based; settings: PAD inhibitor 200 μM; PMA 25 nM or necrotic TCs media
Experimental: Neutrophils were isolated from human healthy volunteers using standard dextran sedimentation followed by Ficoll-Hypaque density centrifugation procedures (Brinkmann et al., 2004, Science 303:1532-1535). Blood donors provided written informed consent forms approved by the local ethical committee. Neutrophils were suspended in RPMI medium (2×10^5˜2×10^6 cell/ml) and seeded into 8-well microns slides or 12˜96-well plates (Ibidi, Martinsried, Germany) in a 5% carbon dioxide atmosphere at 37° C. for 30 minute before stimulation. The neutrophils were placed in normal or hypoxia condition (1% oxygen) for 3, 6, or 24 hours, or stimulated by Phorbol 12-myristate 13-acetate (PMA, 25 nM, Sigma-Aldrich), total calf thymus histones (10, 50, or 100 μg/ml), and necrotic conditioned media from TCs (control, hypoxia, H2O2 stimulation) for 3-4 hours. […]
(§1) In human neutrophil experiments, NETs were quantified by the MPO-DNA sandwich ELISA method using anti-DNA abs (Roche, Mannheim, Germany) and anti-human MPO abs (AbD Serotec) as described (Nakazawa, 2014, J Am Soc Nephrol 25:990-7). In mouse neutrophils experiments, BAL NETs (undiluted) and plasma NETs (×2 diluted in PBS) were evaluated by NE-DNA complex using anti-DNA abs and anti-mouse NE abs (Santa Cruz) as described (Sayah et al., 2015, Am J Respir Crit Care Med 191:455-63). The CitH3 positive NETs were quantified using ImageJ software.

[1] = tested on: bilateral IRI kidney mice; assay: Bilateral IRI kidney model mice (post-ischemic AKI); format: in vivo; settings: ischemia 35 min, reperfusion 24 h
Experimental: C57BL/6N male mice were procured from Charles River Laboratories (Sulzfeld, Germany). 6-8 week-old mice (N=5-14) were anesthetized before renal pedicle clamping (unilateral: 15, 25, 35, or 45 min) with a microaneurysm clamp via flank incisions (Medicon, Tuttlingen, Germany). Body temperature was maintained at between 37° C. and 38° C. throughout the procedure by placing the mice on a heating pad. After clamp removal, recovery of blood flow to the kidney was confirmed as evidenced by returning to its original color, before closing the wound. To maintain fluid balance, all mice were supplemented with 0.5 ml of 0.9% NaCl administered peritoneally. Mice were killed after 0 min, 15 min, 30 min, 6 h, 12 h, 15 h, 24 h, 2 d, 3 d, 7 d and 10 days after surgery. Bilateral IRI mice (ischemia 35 min, reperfusion 24 h) were treated with PAD inhibitor (20 mg/kg, intraperitoneal injection; i.p: CALBIOCHEM®), anti-histone IgGs (20 mg/kg, i.p; clone BWA3; IMMUNOMEDICS®, Morris Plains, N.J.), necrosis inhibitor combination (Necrostatinl/Enzo 1.65 mg/kg i.p, Ferrostatin/CALBIOCHEM®, 2 mg/kg i.p, Ciclosporin/Novartis 10 mg/kg, i.v) 2 hours before IRI surgery. Neutrophil depletion was performed as described previously (Huang et al., 2015, Hepatology 62:600-14) with an i.p. injection of 500 μg anti-Ly6G IgGs (1A8) (BIOXCELL®) or control IgGs 24 and 2 hours before IRI surgery.
For immunofluorescence, the tissues after sacrifice were fixed with 4% paraformaldehyde for 2 hours, dehydrated with 30% sucrose for 24 hours at 4° C., frozen in OCT (TISSUE-TEK®, OCT compounds, SAKURA®) and cryosectioned (5 μm thick). The CitH3 positive NETs and TUNEL positive necrotic cells were quantified using ImageJ software.
For immunostaining, rat anti-mouse Ly6b (neutrophils) ab (AbD Serotec, Oxford, United Kingdom), rabbit citrullinated histone 3 ab (Abcam, Cambridge, United Kingdom), or goat anti neutrophil elastase ab (Santa Cruz Biotechnology, USA) were used. To count the positive cells, 3 high-power fields (100×) were analyzed. BUN and creatinine were measured using urea or creatinine FS kits (DiaSys Diagnostic Systems, Holzheim, Germany) according to the manufacturer's protocols. Mice plasma was analysed for IL-6 and TNF cytokine secretion by ELISA (BD Pharmingen, San Diego, Calif.). Plasma histone was analyzed by western blotting. To prepare a control model with high concentration of histone, lipopolysaccharide (LPS, 20 mg/kg, i.p) was injected into WT mice (8 weeks age, male), and blood samples were taken 6 hours after LPS injection (Li et al., 2011, Surgery 150:442-51). Bronchoalveolar lavage fluid (BAL) in IRI mice was performed as previously described (Sayah et al., 2015, Am J Respir Crit Care Med 191:455-63). The BAL cell number and supernatant NETs were evaluated by cell counter and NE-DNA complexes ELISA, respectively.
as §1

HK-2 cells = assay: NETs cytotoxicity to TCs (conditioned NETs media, LDH assay); format: cell-based, human; settings: 20 h after addition; neutrophils pre-treated with PAD inhibitor 200 μM
Experimental: Neutrophils were stimulated by PMA, histones, or necrotic TCs derived conditioned media and 3 hours after incubation the supernatant was replaced with fresh media (RPMI), and the bottom NETs were collected to avoid the contamination of the media with exogenous PMA or necrotic TCs or histones as previously described (Najmeh et al., 2015, J Vis Exp 16:98). After centrifugation (1200 rpm, 5 min), the supernatants were applied to TCs (1:1). At 20 hours after addition of conditioned NETs media, TCs injury was evaluated by LDH assay. To investigate whether the formed NETs affect fresh neutrophils, conditioned NETs media was applied to fresh neutrophils and 4 h after incubation, additional NET formation in fresh neutrophils was evaluated by immunostaining.
A cell death detection (TUNEL) kit (Roche) was used to quantify dead cells in accordance with the manufacturer's instructions. Systemic dead cell derived DNAs in plasma were quantified by PICOGREEN® dsDNA assay kit (Thermo Fisher Scientific). In vitro, cytotoxicity was evaluated by LDH assay (Roche).

[2] = tested on: IRI-induced kidney damage; settings: chemical inhibitors of necroptosis, ferroptosis, MPT-RN; cited from earlier work
glomeruli = assay: Histone toxicity on glomeruli ex vivo; format: cell-based, mice
From the text: Whether glomerular toxicity of extracellular histones is TLR2/4-dependent is not clear. To answer this question we exposed glomeruli isolated from wild type and Tlr2/4-deficient mice to histones ex vivo. […] We also studied the effects of extracellular histones on glomeruli in vivo. Because intravenous histone injection kills mice immediately by pulmonary microvascular injury (Xu et al., 2009, Nat Med 15:1318), we injected histones directly into the left renal artery in anaesthetized mice. Unilateral histone injection caused glomerular lesions within 24 hours ranging from minor endothelial fibrinogen positivity to thrombotic microangiopathy and global glomerular necrosis (not shown). The contralateral kidney remained unaffected (not shown).

PECs = assay: Histone-induced activation of parietal epithelial cells; format: cell-based, mouse
From the text: Mitogenic plasma proteins leaking from injured glomerular capillaries cause PEC hyperplasia and glomerular crescent formation (Ryu et al., 2012, J Pathol 228:482; Smeets et al., 2009, J Am Soc Nephrol 20:2593; Smeets et al., 2009, J Am Soc Nephrol 20:2604).
Previous reports documented that heparin and recombinant activated protein C (aPC) also block histone toxicity (Xu et al., 2009, Nat Med 15:1318; Wildhagen et al., 2013, Blood 123:1098). […] Thus, extracellular histones activate PECs in a TLR2/4-dependent manner, a process that may act synergistically with other triggers of PEC hyperplasia during crescent formation and that can be blocked by anti-histone IgG, aPC or heparin.

[3] = tested on: GBM antiserum-induced glomerulonephritis in mice; assay: Anti-GBM nephritis model, delayed onset of treatment (established disease); format: in vivo
Experimental: C57BL/6 mice were procured from Charles River (Sulzfeld, Germany). 6-8 week old mice received an intravenous injection of 100 μl of anti-GBM serum (sheep anti-rat glomeruli basement membrane serum procured from Probetex INC, PTX-001). Urine samples were collected at different time points after antiserum injection to evaluate the functional parameters of kidney damage. On day 7 the mice were sacrificed by cervical dislocation to collect plasma and kidney tissue. Kidneys were kept at −80° C. for protein isolation and in RNALATER® solution at −20° C. for RNA isolation. A part of the kidney was also kept in formalin to be embedded in paraffin for histological analysis (Teixeira et al., 2005, Kidney Int 67:514B). We treated groups of mice either with 20 mg/kg, i.p. control IgG or anti-histone antibody (clone BWA-3) to neutralize the effects of extracellular histones.
Renal sections of 2 μm were stained with periodic acid-Schiff reagent. Glomerular abnormalities were scored in 50 glomeruli per section by a blinded observer. The following criteria were assessed in each of the 50 glomeruli and scored as segmental or global lesions if less or more than 50% of the glomerular tuft were affected by focal necrosis and capsule adhesions. Cellular crescents were assessed separately when more than a single layer of PECs were present around the inner circumference of Bowman' s capsule. Immunostaining was performed as described using the following primary antibodies: for WT-1/nephrin, neutrophils (Serotec, Oxford, UK), Mac-2 (Cedarlane, Ontario, Canada), TNF-α (Abcam, Cambridge, UK) and fibrinogen (Abcam, Cambridge, UK). Stained glomerular cells were quantified in 50 glomeruli per section.
We mext examined whether histone neutralization could be therapeutic in established disease. […] In another series of experiments we initiated anti-histone IgG, heparin, and aPC treatments 24 hours after GBM antiserum injection, a time point where massive proteinuria and elevated BUN were already established (not shown). […]

[4] = tested on: glomerular endothelial cells, podocytes, and parietal epithelial cells; assay: Histone killing of glomerular cells (summary); format: cell-based, mouse; settings: histones from calf thymus or released by neutrophils undergoing NETosis
Experimental: Mouse glomerular endothelial cells (GEnC (46)), podocytes (47)), and parietal epithelial cells (PECs, (48)) were cultured in 96 well plates with RPMI media without FCS and PS and allowed to adhere overnight. The cells were stimulated with the different concentrations of total calf thymus histones (10, 20, 30, 40, 50 and 100 μg/ml) with or without histone antibody for another 18-20 h. Cytotoxicity assay was performed using Promega CELLTITER 96® non-radioactive cell proliferation assay (MTT Assay Kit, Mannheim, Germany). Glomerular cells were also incubated with histones with or without anti-histone IgG, heparin and/or aPC. LDH assay using cytotoxicity detection kit (Roche Diagnostics, Mannheim, Germany) was used to assess cell death.

DDD of PKA = DDD of PKA (Homo sapiens, UniProt P13861); settings: cited from earlier work
DDD of PKA, sequence (P13861 2-45 limits assumed): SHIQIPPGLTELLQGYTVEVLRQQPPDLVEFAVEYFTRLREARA

[5] = in vivo; cited from earlier work
[6] = tested on: RII and RI isoforms of PKA; settings: Gold et al. 2006; cited from earlier work

NC(=O)[C@H](CCCN=C(N)CCl)NC(=O)c1ccccc1 [PAD inhibitor, Cl-amidine]
induced NET formation in neutrophils (MPO-DNA complex of supernatants) (human neutrophils): abrogated
NET components in plasma [1]: substantially reduced
expression of AKI marker genes [1]: significantly reduced
renal function (plasma creatinine, plasma urea) [1]: significantly reduced
tissue necrotic area / tubular necrosis ([1]; PAS and TUNEL staining): significantly reduced
protective effect on IRI kidney (overall) ([1]; listed as NET inhibitor): ameliorates
protective effect on IRI kidney (overall) ([1]; listed as inhibitor of NET formation): protected
abundance of NETs in the post-ischemic kidney ([1]; treated before surgery): substantially reduced
tubular cell injury by conditioned NETs media (LDH assay) (HK-2 cells): abrogated; also recorded: reduced the damage of TCs

CN1C(=O)C(Cc2c[nH]c3ccccc23)NC1=S (stereo not shown) [necrostatin 1]
kidney injury [2]: did not completely prevent

CC[C@H]1C[C@H](C)[C@@]2(NC1=O)O[C@@H](C[C@H](O)[C@@H](C)CC/C=C/C=C(\C)[C@@H]1C/C=C/C=C/[C@H](O)[C@H](C)[C@@H](O)[C@@H](CCC(C)=O)C(=O)N[C@@H](C(C)C)C(=O)N[C@@H](Cc3cccc(O)c3)C(=O)N3CCC[C@H](N3)C(=O)O1)[C@H](C)[C@H](O)[C@@H]2C [sanglifehrin A]
kidney injury [2]: did not completely prevent

heparin
histone toxicity on glomeruli ex vivo (glomeruli): completely blocked
PEC activation by histones (PECs): protective effect
renal dysfunction and structural injury during severe GN ([3]; delayed onset of histone blockade): protects
severe glomerulonephritis in mice with established disease ([3]; mouse, in vivo): abrogated
all aspects of GBM antiserum-induced severe GN ([3]; pre-emptive as well as delayed onset of histone neutralization): abrogates
killing of glomerular cells by histones / extracellular histone toxicity in vitro [4]: prevented

RII selective AD sequence, SEQ ID NO:21 QIEYLAKQIVDNAIQQA [AKAP-IS]
Kd (DDD of PKA; Alto et al. 2003, read-out: binding constant for DDD): 400 pM
affinity for the MI DDD sequence (DDD of PKA; Hundsrucker et al. 2006): particularly high affinities

veltuzumab: humanized IgG1 antibody against CD20
immunogenicity in subjects compared with rituximab [5]: less immunogenic

SuperAKAP-IS: SEQ ID NO:30 QIEYVAKQIVDYAIHQA
selectivity for the RII isoform of PKA compared with the RI isoform [6]: five order of magnitude higher

CCOC(=O)c1ccc(NC2CCCCC2)c(N)c1 [ferrostatin 1]
kidney injury [2]: did not completely prevent
